One block for each molecule: values may come before it.
Key:
[1] = molecular target: Signal transducer and activator of transcription 6 (Homo sapiens) (UniProt P42226); assay: Binding affinity to STAT6 (unknown origin) assessed as maximum inhibition by FP assay relative to control
[2] = molecular target: Signal transducer and activator of transcription 4 (Homo sapiens, UniProt Q14765); assay: Binding affinity to STAT4 (unknown origin) by FP assay
SU-DHL-1 = assay: Antiproliferative activity against human SU-DHL-1 cells assessed as cell growth inhibition incubated for 4 days by celltiter-glo assay; type: functional, cell-based; details: SU-DHL-1, 96 h
[3] = molecular target: T1, Protein cereblon/Signal transducer and activator of transcription 3 (Homo sapiens, UniProt P40763+Q96SW2); assay: PROTAC activity at his-SUMO-tagged STAT3 (127 to 688 residues)/CRBN in human HeLa cells assessed as induction of STAT3 degradation incubated for 24 hrs by TECAN SPARK microplate reader analysis relative to control; type: cell-based
[4] = molecular target: Signal transducer and activator of transcription 6 (Homo sapiens, UniProt P42226); assay: Binding affinity to STAT6 (unknown origin) by FP assay
[5] = molecular target: Signal transducer and activator of transcription 1-alpha/beta (Homo sapiens, UniProt P42224); assay: Binding affinity to STAT1 (unknown origin) by FP assay
[6] = Antiproliferative activity against human MOLM16 cells assessed as cell growth inhibition incubated for 4 days by celltiter-glo assay; type: functional, cell-based, MOLM-16; details: MOLM16, 96 h
[7] = molecular target: Signal transducer and activator of transcription 4 (Homo sapiens) (UniProt Q14765); assay: Binding affinity to STAT4 (unknown origin) assessed as maximum inhibition by FP assay relative to control
[8] = Binding affinity to STAT5 (unknown origin) by FP assay; design: species or system Homo sapiens
[9] = Antiproliferative activity against human SUPM2 cells assessed as cell growth inhibition incubated for 4 days by celltiter-glo assay; type: functional, cell-based; details: SUP-M2, 96 h
[10] = molecular target: Protein cereblon/Signal transducer and activator of transcription 4 (Homo sapiens, UniProt Q96SW2+Q14765); assay: PROTAC activity at STAT4/CRBN in human SU-DHL-1 cells assessed as reduction in STAT4 level incubated for 20 hrs by Western blot analysis; type: cell-based; details: dose <= 40.0 µM
[11] = molecular target: T2, Signal transducer and activator of transcription 3 (Homo sapiens, UniProt P40763); assay: Binding affinity to STAT3 (unknown origin) assessed as maximum inhibition by FP assay relative to control
[12] = molecular target: Signal transducer and activator of transcription 1-alpha/beta (Homo sapiens) (UniProt P42224); assay: Binding affinity to STAT1 (unknown origin) assessed as maximum inhibition by FP assay relative to control
[13] = molecular target: T1, Protein cereblon/Signal transducer and activator of transcription 3; assay: PROTAC activity at his-SUMO-tagged STAT3 (127 to 688 residues)/CRBN in human HeLa cells assessed as induction of STAT3 degradation incubated for 24 hrs by TECAN SPARK microplate reader analysis; type: cell-based
[14] = molecular target: T2, Signal transducer and activator of transcription 3; assay: Binding affinity to STAT3 (unknown origin) assessed as inhibition constant
[15] = Chemical stability of the compound in PBS buffer at pH 8; type: physicochemical
[16] = Chemical stability of the compound in PBS buffer at pH 7.4; type: physicochemical
[17] = Chemical stability of the compound in PBS buffer at pH 4; type: physicochemical
[18] = Chemical stability of the compound in PBS buffer assessed as half life at pH 8; type: physicochemical
[19] = Chemical stability of the compound in PBS buffer assessed as half life at pH 4; type: physicochemical
[20] = Chemical stability of the compound in PBS buffer assessed as half life at pH 7.4; type: physicochemical
[21] = Plasma protein binding in rat at 10 uM; type: ADME, cell-free
[22] = molecular target: T3, Protein cereblon/Signal transducer and activator of transcription 3 (Mus musculus) (UniProt P42227+Q8C7D2); assay: In-vivo PROTAC activity at STAT3/CRBN in female CB17 SCID mouse assessed as reduction STAT3 level spleen at 10 mg/kg, iv measured at 48 hrs by Western blot analysis; type: functional, organism-based; design: scale not given: the % may be the effect or the level left
[23] = Cmax in Sprague-Dawley rat at 5 mg/kg, iv; type: ADME, organism-based; details: in vivo
[24] = Cmax in ICR mouse at 5 mg/kg, iv; type: ADME, organism-based; details: in vivo
[25] = Plasma protein binding in dog at 10 uM; type: ADME, cell-free, Canis lupus familiaris
[26] = molecular target: T3, Protein cereblon/Signal transducer and activator of transcription 3 (Mus musculus); assay: In-vivo PROTAC activity at STAT3/CRBN in female CB17 SCID mouse assessed as reduction STAT3 level liver at 10 mg/kg, iv measured at 24 hrs by Western blot analysis; type: functional, organism-based; design: scale not given: the % may be the effect or the level left
[27] = Plasma protein binding in human at 10 uM; type: ADME, cell-free
[28] = Plasma protein binding in dog assessed as unbound fraction at 10 uM; type: ADME, cell-free, Canis lupus familiaris
[29] = Cmax in Beagle dog at 1 mg/kg, iv; type: ADME, organism-based, Canis lupus familiaris; details: in vivo
[30] = molecular target: T3, Protein cereblon/Signal transducer and activator of transcription 3 (Mus musculus); assay: In-vivo PROTAC activity at STAT3/CRBN in female CB17 SCID mouse assessed as reduction STAT3 level spleen at 10 mg/kg, iv measured at 72 hrs by Western blot analysis; type: functional, organism-based; design: scale not given: the % may be the effect or the level left
[31] = Clearance in Sprague-Dawley rat assessed as hepatic blood flow at 5 mg/kg, iv; type: ADME, organism-based; details: in vivo
[32] = molecular target: T3, Protein cereblon/Signal transducer and activator of transcription 3 (Mus musculus); assay: In-vivo PROTAC activity at STAT3/CRBN in female CB17 SCID mouse assessed as reduction STAT3 level liver at 10 mg/kg, iv measured at 48 hrs by Western blot analysis; type: functional, organism-based; design: scale not given: the % may be the effect or the level left
[33] = Clearance in ICR mouse assessed as hepatic blood flow at 5 mg/kg, iv; type: ADME, organism-based; details: in vivo
[34] = Half life in Sprague-Dawley rat at 5 mg/kg, iv; type: ADME, organism-based; details: in vivo
[35] = Apparent volume of distribution in Beagle dog at 1 mg/kg, iv; type: ADME, organism-based, Canis lupus familiaris; details: in vivo, read-out: Vz
[36] = Apparent volume of distribution in Sprague-Dawley rat at 5 mg/kg, iv; type: ADME, organism-based; details: in vivo, read-out: Vz
[37] = Clearance in Sprague-Dawley rat at 5 mg/kg, iv; type: ADME, organism-based; details: in vivo
[38] = AUC (0 to t) in Sprague-Dawley rat at 5 mg/kg, iv; type: ADME, organism-based; details: in vivo
[39] = Plasma protein binding in rat assessed as unbound fraction at 10 uM; type: ADME, cell-free
[40] = AUC (0 to t) in ICR mouse at 5 mg/kg, iv; type: ADME, organism-based; details: in vivo
[41] = Apparent volume of distribution in ICR mouse at 5 mg/kg, iv; type: ADME, organism-based; details: in vivo, read-out: Vz
[42] = Half life in ICR mouse at 5 mg/kg, iv; type: ADME, organism-based; details: in vivo
[43] = Plasma protein binding in mouse at 10 uM; type: ADME, cell-free
[44] = Half life in Beagle dog at 1 mg/kg, iv; type: ADME, organism-based, Canis lupus familiaris; details: in vivo
[45] = molecular target: T3, Protein cereblon/Signal transducer and activator of transcription 3 (Mus musculus); assay: In-vivo PROTAC activity at STAT3/CRBN in female CB17 SCID mouse assessed as reduction STAT3 level liver at 10 mg/kg, iv measured at 72 hrs by Western blot analysis; type: functional, organism-based; design: scale not given: the % may be the effect or the level left
[46] = AUC (0 to t) in Beagle dog at 1 mg/kg, iv; type: ADME, organism-based, Canis lupus familiaris; details: in vivo
[47] = Clearance in Beagle dog at 1 mg/kg, iv; type: ADME, organism-based, Canis lupus familiaris; details: in vivo
[48] = molecular target: T3, Protein cereblon/Signal transducer and activator of transcription 3 (Mus musculus); assay: In-vivo PROTAC activity at STAT3/CRBN in female CB17 SCID mouse assessed as reduction STAT3 level spleen at 10 mg/kg, iv measured at 24 hrs by Western blot analysis; type: functional, organism-based; design: scale not given: the % may be the effect or the level left
[49] = Clearance in ICR mouse at 5 mg/kg, iv; type: ADME, organism-based; details: in vivo
[50] = Plasma protein binding in human assessed as unbound fraction at 10 uM; type: ADME, cell-free
[51] = Clearance in Beagle dog assessed as hepatic blood flow at 1 mg/kg, iv; type: ADME, organism-based, Canis lupus familiaris; details: in vivo

Compound: NC(=O)CC[C@H](NC(=O)[C@@H]1CC[C@@H]2CCN(C(=O)CCCCCC#Cc3cccc4c3CN(C3CCC(=O)NC3=O)C4=O)C[C@H](NC(=O)c3cc4cc(C(F)(F)P(=O)(O)O)ccc4[nH]3)C(=O)N21)C(=O)NC(c1ccccc1)c1ccccc1 (some centres not stated)
Imax [1]: 0%
IC50 [2]: 1100 nM
IC50 (SU-DHL-1): 330 nM
Emax [3]: 86%
IC50 [4]: > 10000 nM
IC50 [5]: 1300 nM
IC50 [6]: 30 nM
Imax [7]: 93%
IC50 [8]: > 10 nM
IC50 [9]: 490 nM
Activity [10]: Dose-dependent-effect
Imax [11]: 100%
Imax [12]: 92%
DC50 [13]: 400 nM

Ki [14]: 6 nM
Stability [15]: Stable
Stability [16]: Stable
Stability [17]: Stable
Compound: CN1CC[C@H]2CC[C@@H](C(=O)N[C@@H](CCC(N)=O)C(=O)NC(c3ccccc3)c3ccccc3)N2C(=O)[C@@H](NC(=O)c2cc3cc(C(F)(F)P(=O)(O)O)ccc3s2)C1

Compound: CN1CC[C@H]2CC[C@@H](C(=O)N[C@@H](CCC(N)=O)C(=O)NC(c3ccccc3)c3ccccc3)N2C(=O)[C@@H](NC(=O)c2cc3cc(C(F)(F)P(=O)(O)O)ccc3[nH]2)C1
t1/2 [18]: 2 h
t1/2 [19]: 4 h
t1/2 [20]: 2 h

Compound: CC(=O)N1CC[C@H]2CC[C@@H](C(=O)N[C@@H](CCC(N)=O)C(=O)N[C@@H](Cc3ccc(F)c(F)c3)C(=O)N3CCC(CCC#Cc4cccc5c4CN(C4CCC(=O)NC4=O)C5=O)CC3)N2C(=O)[C@@H](NC(=O)c2cc3cc(C(F)(F)P(=O)(O)O)ccc3s2)C1 (some centres not stated)
PPB [21]: 96.2%
Activity [22]: > 90%
Cmax [23]: 15900 ng/mL
Cmax [24]: 121000 ng/mL
PPB [25]: 96.7%
IC50 (SU-DHL-1): 3580 nM
Activity [26]: > 90%
Emax [3]: 68%
PPB [27]: 99.4%
Fu [28]: 3.3%
IC50 [6]: 75 nM
Cmax [29]: 8030 ng/mL
Activity [30]: > 90%
QH [31]: 7.3%
Activity [32]: > 90%
QH [33]: 0.1%
half-life [34]: 1.3 h
IC50 [9]: 1460 nM
Vd [35]: 0.24 L/kg
Vd [36]: 0.44 L/kg
clearance [37]: 4 mL/min/kg
AUC(0-t) [38]: 21100 ng·h/mL
Fu [39]: 3.8%
AUC(0-t) [40]: 739000 ng·h/mL
Vd [41]: 0.11 L/kg
half-life [42]: 16.9 h
PPB [43]: 99.1%
half-life [44]: 2.9 h
Activity [45]: > 90%
AUC(0-t) [46]: 15000 ng·h/mL
clearance [47]: 1 mL/min/kg
Activity [48]: > 90%
clearance [49]: 0.073 mL/min/kg
Fu [50]: 0.6%
DC50 [13]: 1600 nM
QH [51]: 3.1%

Reference: ChEMBL document CHEMBL6092220 (J Med Chem, 2024)
